From ChEMBL document CHEMBL1201862, “PubChem BioAssay data set” (2004) come the findings set out here.

The structures appear in SMILES notation.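 Growth conditions: 96-well plates. Treatment: test compound, 48 hours, 5 concentrations. Analysis: linear interpolation between bracketing concentrations; unreached endpoints set to highest concentration. The concentration for 50% growth inhibition is given as GI50.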 Activity calls are given as the source filed them. No stated cut-off is given here; in the data, active = GI50 up to about 1.1 µM and inactive = higher.

Test systems include SNB-75; SF-268; SF-295; IGROV-1; K562; DMS-114; UACC-62; UACC-257; RXF 393; CAKI-1; KM12; SK-MEL-5; SF-539; HOP-62; OVCAR-3; HCT-15; HOP-92.
Holding throughout (assay): NCI anticancer screen, dose series, 48 h

Turning to `O=NN(CCCl)C(=O)N[C@H]1CC[C@@H](CC(=O)O)CC1`, the GI50 in the assay on SNB-75 is > 81.1 µM (inactive); with SF-268, 33 µM (inactive); in the assay on SF-295, 67.5 µM (inactive); in the assay on IGROV-1, > 100 µM (inactive); in the assay on K562 it was > 100 µM (inactive); in the assay on DMS-114, > 100 µM (inactive). The GI50 is 35.2 µM (inactive) with UACC-62; > 100 µM (inactive) in the assay on UACC-257; > 100 µM (inactive) with RXF 393; > 100 µM (inactive) with CAKI-1; > 100 µM (inactive) with KM12; > 100 µM (inactive) in the assay with SK-MEL-5. Further, the GI50 was 45.7 µM (inactive) with SF-539; > 100 µM (inactive) with HOP-62; > 100 µM (inactive) with OVCAR-3; above 100 µM in the assay with HCT-15; > 84.9 µM (inactive) with HOP-92.
For the compound `COc1ccc(C2S/C(=C\c3ccc(O)cc3)C(=O)N2NC(=O)Cc2ccccc2)cc1` (configuration not stated), the GI50 in the assay with SNB-75 is 90.8 µM (inactive); with SF-268, > 100 µM (inactive); in the assay with SF-295, > 100 µM (inactive); with IGROV-1 it was > 100 µM (inactive); in the assay with K562, > 100 µM (inactive); in the assay on DMS-114, > 100 µM (inactive). For the same compound, the GI50 with UACC-62, with UACC-257, in the assay on RXF 393, with CAKI-1, in the assay on KM12 and with SK-MEL-5 was > 100 µM (inactive) in each case. In addition, the GI50 is > 100 µM (inactive) in the assay with SF-539, > 100 µM (inactive) with HOP-62, above 100 µM in the assay on HCT-15 and > 100 µM (inactive) in the assay on HOP-92.
For the compound `COC[C@@H]1Cc2cc(OC)c3c(c2[C@H](c2ccc(OC)c(OC)c2)[C@H]1COC)OCO3` [HYPOPHYLLANTHIN], the GI50 in the assay with SNB-75 was 28.1 µM (inactive); with SF-268 it was 51.6 µM (inactive); in the assay on SF-295, 57.5 µM (inactive); in the assay on IGROV-1, > 100 µM (inactive); in the assay with K562, > 10 µM (inactive); in the assay with DMS-114, > 100 µM (inactive). Also, the GI50 in the assay on UACC-62 is > 100 µM (inactive); in the assay with UACC-257, > 100 µM (inactive); with RXF 393, 42.6 µM (inactive); in the assay with KM12, > 100 µM (inactive); in the assay on SK-MEL-5, > 10 µM (inactive); with SF-539, 38.8 µM (inactive). Also, the GI50 was > 100 µM (inactive) in the assay with OVCAR-3, above 100 µM with HCT-15 and 70 µM (inactive) in the assay on HOP-92.
For `CCNC1=Nc2ccccc2-n2c(nn3nc4ccccc4c23)N1CC`, the GI50 was > 100 µM (inactive) in the assay with SNB-75; > 100 µM (inactive) with SF-268; 37.3 µM (inactive) in the assay with SF-295; > 100 µM (inactive) in the assay with IGROV-1; 66.7 µM (inactive) with K562; 89.3 µM (inactive) in the assay on DMS-114. The GI50 in the assay on UACC-62 was > 100 µM (inactive); with UACC-257, > 100 µM (inactive); in the assay on RXF 393, > 100 µM (inactive); with KM12, 29.6 µM (inactive); with SK-MEL-5, > 100 µM (inactive); with SF-539, > 100 µM (inactive). Besides, the GI50 in the assay with HOP-62 was > 100 µM (inactive); with HCT-15, above 100 µM; in the assay with HOP-92, > 100 µM (inactive).
In the case of `CON(C)C(=O)CCCO`, the GI50 with SNB-75, in the assay with SF-268, in the assay on SF-295, with IGROV-1, with K562 and in the assay on DMS-114 was > 100 µM (inactive) throughout. In addition, the GI50 in the assay on UACC-62, in the assay on UACC-257, in the assay with RXF 393, in the assay on CAKI-1, in the assay on KM12 and in the assay with SK-MEL-5 was > 100 µM (inactive) throughout. Also, the GI50 with SF-539 was > 100 µM (inactive); with HOP-62 it was > 100 µM (inactive); in the assay on OVCAR-3, > 100 µM (inactive); in the assay with HCT-15, above 100 µM; with HOP-92 it was > 100 µM (inactive).
Turning to `CC(C)N(C(=O)C12C3C4C1C1C4(C#N)C3C12C#N)C(C)C` (configuration not stated), the GI50 in the assay with SF-268, in the assay with SF-295, in the assay with IGROV-1, in the assay with K562, in the assay on DMS-114 and in the assay with UACC-62 was > 100 µM (inactive) in each case. The GI50 with UACC-257, with RXF 393, in the assay on CAKI-1, in the assay with SK-MEL-5, with SF-539 and in the assay with HOP-62 was > 100 µM (inactive) throughout. The figures for the GI50 in the assay on OVCAR-3, in the assay with HCT-15 and in the assay on HOP-92 were > 100 µM (inactive), above 100 µM and > 100 µM (inactive), respectively.
For the compound `C[C@@H]1CC2(C[C@@H](C)C3[C@@H](CC4(C)CCCC5C6=CC(O)(CC[C@]34C)OC6=CC(=O)OC5(C)C)O2)OC1=O` (some centres not stated), the GI50 in the assay with SNB-75 is 96.2 µM (inactive); in the assay with IGROV-1, > 100 µM (inactive); with K562, 84.3 µM (inactive); with DMS-114, > 100 µM (inactive); in the assay with UACC-62, > 100 µM (inactive); in the assay with RXF 393 it was > 100 µM (inactive). Also, the GI50 is > 100 µM (inactive) in the assay with KM12; > 100 µM (inactive) in the assay on SK-MEL-5; > 100 µM (inactive) with SF-539; > 100 µM (inactive) with OVCAR-3; above 100 µM in the assay on HCT-15; > 100 µM (inactive) in the assay with HOP-92.
In the case of `CCC(=O)O[C@@H]1C2C(OC(C)=O)C34COC(C)([C@@H]3C3C(C[C@]3(C)OC(C)=O)[C@@H](OC(=O)c3ccccc3)C4=O)[C@H](OC(C)=O)[C@@]2(OC(C)=O)C[C@@H]1C` (some centres not stated), the GI50 in the assay with SNB-75 is 3.01 µM (inactive); in the assay on SF-268, 44.1 µM (inactive); with SF-295, 12.4 µM (inactive); with IGROV-1, 13.7 µM (inactive); in the assay with K562 it was > 10 µM (inactive); in the assay with DMS-114, 23.3 µM (inactive). The GI50 with UACC-62 was 75.9 µM (inactive); in the assay with UACC-257 it was 87.9 µM (inactive); with CAKI-1, > 100 µM (inactive); in the assay with KM12, > 100 µM (inactive); with SK-MEL-5, 13.5 µM (inactive); with SF-539, 14.9 µM (inactive). Further, the GI50 is 25.1 µM (inactive) with HOP-62, 21.6 µM (inactive) with OVCAR-3, 16 µM in the assay on HCT-15 and 14.7 µM (inactive) with HOP-92.
Consider `COc1ccc(OC)c2c1CC(C(=O)O)(C(=O)O)CC2=O`, for which the GI50 in the assay with SNB-75, in the assay on SF-268, in the assay with IGROV-1, in the assay on K562, in the assay with DMS-114 and with UACC-62 was > 100 µM (inactive) each time. Besides, the GI50 with RXF 393, with CAKI-1, in the assay on KM12, with SK-MEL-5, with HOP-62 and in the assay with OVCAR-3 was > 100 µM (inactive) each time. Further, the GI50 in the assay on HCT-15 is above 100 µM; with HOP-92, > 100 µM (inactive).
